Assay results reported in the NIST ThermoML archive (doi:10.1021/je025606c).

Columns and labels:
[1] = molar heat capacity at constant pressure; conditions: Liquid
[2] = Liquid; for kinematic viscosity: Capillary tube (Ostwald / Ubbelohde) method; for mass density: 1000 kPa, Vibrating tube method

CCCCOCCOCCOCCOCCCC [5,8,11,14-tetraoxaoctadecane]
Conditions | kinematic viscosity [m2/s] | molar heat capacity at constant pressure [J/K/mol]
[1], 312.57 K, 1000 kPa | – | 544.45
[1], 322.47 K, 1000 kPa | – | 547.86
[1], 332.37 K, 1000 kPa | – | 553.9
[1], 342.27 K, 1000 kPa | – | 559.14
[1], 352.18 K, 1000 kPa | – | 564.65
[1], 362.08 K, 1000 kPa | – | 571.48
[1], 371.98 K, 1000 kPa | – | 578.82
[1], 381.88 K, 1000 kPa | – | 584.33
[1], 391.78 K, 1000 kPa | – | 589.58
[1], 401.68 K, 1000 kPa | – | 597.71
[1], 411.58 K, 1000 kPa | – | 603.75
[1], 421.48 K, 1000 kPa | – | 612.15
[2], 283.15 K, 101.33 kPa | 5.42e-06 | –
[2], 293.15 K, 101.33 kPa | 4.16e-06 | –
[2], 303.15 K, 101.33 kPa | 3.3e-06 | –
[2], 313.15 K, 101.33 kPa | 2.7e-06 | –
[2], 323.15 K, 101.33 kPa | 2.25e-06 | –
[2], 333.15 K, 101.33 kPa | 1.92e-06 | –
[2], 343.15 K, 101.33 kPa | 1.67e-06 | –
[2], 353.15 K, 101.33 kPa | 1.46e-06 | –
[2], 363.15 K, 101.33 kPa | 1.3e-06 | –
[2], 373.15 K, 101.33 kPa | 1.17e-06 | –
[2], 383.15 K, 101.33 kPa | 1.04e-06 | –
[2], 393.15 K, 101.33 kPa | 9.49e-07 | –
[2], 403.15 K, 101.33 kPa | 8.68e-07 | –
[2], 413.15 K, 101.33 kPa | 7.98e-07 | –
[2], 423.15 K, 101.33 kPa | 7.37e-07 | –

[2]
Conditions | mass density [kg/m3]
283.15 K | 926.1
293.15 K | 917.7
303.15 K | 909.4
313.15 K | 901.2
323.15 K | 893
333.15 K | 884.8
343.15 K | 876.5
353.15 K | 868.2
363.15 K | 859.8
373.15 K | 851.4
383.15 K | 843
393.15 K | 834.5
403.15 K | 826.1
413.15 K | 817.6
423.15 K | 809.1

CCOCCOCC [1,2-diethoxyethane]
Conditions | kinematic viscosity [m2/s] | molar heat capacity at constant pressure [J/K/mol]
[1], 312.57 K, 1 kPa | – | 264.59
[1], 322.47 K, 1 kPa | – | 265.54
[1], 332.37 K, 1 kPa | – | 268.37
[1], 342.27 K, 1 kPa | – | 270.86
[1], 352.18 K, 1 kPa | – | 273.57
[1], 362.08 K, 1 kPa | – | 276.17
[1], 371.98 K, 1 kPa | – | 280.31
[1], 381.88 K, 1 kPa | – | 283.03
[1], 391.78 K, 1 kPa | – | 286.22
[1], 401.68 K, 1 kPa | – | 289.88
[1], 411.58 K, 1 kPa | – | 293.43
[1], 421.48 K, 1 kPa | – | 296.97
[2], 283.15 K, 101.3 kPa | 9.5e-07 | –
[2], 293.15 K, 101.3 kPa | 8.22e-07 | –
[2], 303.15 K, 101.3 kPa | 7.28e-07 | –
[2], 313.15 K, 101.3 kPa | 6.48e-07 | –
[2], 323.15 K, 101.3 kPa | 5.84e-07 | –
[2], 333.15 K, 101.3 kPa | 5.32e-07 | –
[2], 343.15 K, 101.3 kPa | 4.87e-07 | –

[2]
Conditions | mass density [kg/m3]
283.15 K | 862.9
293.15 K | 852.8
303.15 K | 842.6
313.15 K | 832.3
323.15 K | 822
333.15 K | 811.6
343.15 K | 801.1
353.15 K | 790.5
363.15 K | 779.6
373.15 K | 768.6
383.15 K | 757.2
393.15 K | 745.8
403.15 K | 734
413.15 K | 721.8
423.15 K | 709.4

CCCCOCCOCCOCCCC [5,8,11-trioxapentadecane]
Conditions | kinematic viscosity [m2/s] | molar heat capacity at constant pressure [J/K/mol]
[1], 312.57 K, 1000 kPa | – | 456.53
[1], 322.47 K, 1000 kPa | – | 460.9
[1], 332.37 K, 1000 kPa | – | 465.49
[1], 342.27 K, 1000 kPa | – | 470.51
[1], 352.18 K, 1000 kPa | – | 475.75
[1], 362.08 K, 1000 kPa | – | 480.33
[1], 371.98 K, 1000 kPa | – | 486.88
[1], 381.88 K, 1000 kPa | – | 493.65
[1], 391.78 K, 1000 kPa | – | 500.42
[1], 401.68 K, 1000 kPa | – | 505.44
[1], 411.58 K, 1000 kPa | – | 512.21
[1], 421.48 K, 1000 kPa | – | 517.89
[2], 283.15 K, 101.33 kPa | 3.36e-06 | –
[2], 293.15 K, 101.33 kPa | 2.69e-06 | –
[2], 303.15 K, 101.33 kPa | 2.21e-06 | –
[2], 313.15 K, 101.33 kPa | 1.86e-06 | –
[2], 323.15 K, 101.33 kPa | 1.59e-06 | –
[2], 333.15 K, 101.33 kPa | 1.38e-06 | –
[2], 343.15 K, 101.33 kPa | 1.22e-06 | –
[2], 353.15 K, 101.33 kPa | 1.08e-06 | –
[2], 363.15 K, 101.33 kPa | 9.68e-07 | –
[2], 373.15 K, 101.33 kPa | 8.72e-07 | –
[2], 383.15 K, 101.33 kPa | 7.95e-07 | –
[2], 393.15 K, 101.33 kPa | 7.28e-07 | –
[2], 403.15 K, 101.33 kPa | 6.7e-07 | –
[2], 413.15 K, 101.33 kPa | 6.21e-07 | –
[2], 423.15 K, 101.33 kPa | 5.78e-07 | –

[2]
Conditions | mass density [kg/m3]
283.15 K | 891.6
293.15 K | 883.2
303.15 K | 875
313.15 K | 866.8
323.15 K | 858.5
333.15 K | 850.4
343.15 K | 842.1
353.15 K | 833.7
363.15 K | 824.9
373.15 K | 816.5
383.15 K | 807.9
393.15 K | 799.4
403.15 K | 790.8
413.15 K | 782.1
423.15 K | 773.3

COCC(C)OCC(C)OC (configuration not stated) [2-methoxy-1-(2-methoxy-1-methylethoxy)propane]
Conditions | kinematic viscosity [m2/s] | molar heat capacity at constant pressure [J/K/mol]
[1], 312.57 K, 1000 kPa | – | 328.67
[1], 322.47 K, 1000 kPa | – | 332.56
[1], 332.37 K, 1000 kPa | – | 336.62
[1], 342.27 K, 1000 kPa | – | 340.35
[1], 352.18 K, 1000 kPa | – | 345.22
[1], 362.08 K, 1000 kPa | – | 349.92
[1], 371.98 K, 1000 kPa | – | 354.14
[1], 381.88 K, 1000 kPa | – | 359.49
[1], 391.78 K, 1000 kPa | – | 364.69
[1], 401.68 K, 1000 kPa | – | 369.71
[1], 411.58 K, 1000 kPa | – | 373.93
[1], 421.48 K, 1000 kPa | – | 381.23
[2], 283.15 K, 101.33 kPa | 1.41e-06 | –
[2], 293.15 K, 101.33 kPa | 1.2e-06 | –
[2], 303.15 K, 101.33 kPa | 1.03e-06 | –
[2], 313.15 K, 101.33 kPa | 9.03e-07 | –
[2], 323.15 K, 101.33 kPa | 8.01e-07 | –
[2], 333.15 K, 101.33 kPa | 7.19e-07 | –
[2], 343.15 K, 101.33 kPa | 6.5e-07 | –
[2], 353.15 K, 101.33 kPa | 5.93e-07 | –
[2], 363.15 K, 101.33 kPa | 5.51e-07 | –
[2], 373.15 K, 101.33 kPa | 5.06e-07 | –
[2], 383.15 K, 101.33 kPa | 4.69e-07 | –
[2], 393.15 K, 101.33 kPa | 4.37e-07 | –
[2], 403.15 K, 101.33 kPa | 4.07e-07 | –
[2], 413.15 K, 101.33 kPa | 3.81e-07 | –
[2], 423.15 K, 101.33 kPa | 3.59e-07 | –

[2]
Conditions | mass density [kg/m3]
283.15 K | 913
293.15 K | 903.4
303.15 K | 894
313.15 K | 884.8
323.15 K | 875.4
333.15 K | 866
343.15 K | 856.5
353.15 K | 846.9
363.15 K | 837
373.15 K | 827.2
383.15 K | 817.2
393.15 K | 807.2
403.15 K | 797.1
413.15 K | 786.8
423.15 K | 776.3

CCOCCOCCOCC [diethylene glycol diethyl ether]
Conditions | kinematic viscosity [m2/s] | molar heat capacity at constant pressure [J/K/mol]
[1], 312.57 K, 1000 kPa | – | 349.11
[1], 322.47 K, 1000 kPa | – | 351.22
[1], 332.37 K, 1000 kPa | – | 353.33
[1], 342.27 K, 1000 kPa | – | 355.44
[1], 352.18 K, 1000 kPa | – | 358.68
[1], 362.08 K, 1000 kPa | – | 360.79
[1], 371.98 K, 1000 kPa | – | 364.85
[1], 381.88 K, 1000 kPa | – | 368.9
[1], 391.78 K, 1000 kPa | – | 372.15
[1], 401.68 K, 1000 kPa | – | 377.01
[1], 411.58 K, 1000 kPa | – | 380.75
[1], 421.48 K, 1000 kPa | – | 384.8
[2], 283.15 K, 101.33 kPa | 1.84e-06 | –
[2], 293.15 K, 101.33 kPa | 1.5e-06 | –
[2], 303.15 K, 101.33 kPa | 1.27e-06 | –
[2], 313.15 K, 101.33 kPa | 1.09e-06 | –
[2], 323.15 K, 101.33 kPa | 9.56e-07 | –
[2], 333.15 K, 101.33 kPa | 8.48e-07 | –
[2], 343.15 K, 101.33 kPa | 7.6e-07 | –
[2], 353.15 K, 101.33 kPa | 6.91e-07 | –
[2], 363.15 K, 101.33 kPa | 6.33e-07 | –
[2], 373.15 K, 101.33 kPa | 5.77e-07 | –
[2], 383.15 K, 101.33 kPa | 5.32e-07 | –
[2], 393.15 K, 101.33 kPa | 4.93e-07 | –
[2], 403.15 K, 101.33 kPa | 4.59e-07 | –
[2], 413.15 K, 101.33 kPa | 4.29e-07 | –
[2], 423.15 K, 101.33 kPa | 4.02e-07 | –

[2]
Conditions | mass density [kg/m3]
283.15 K | 917.4
293.15 K | 907.9
303.15 K | 898.4
313.15 K | 889
323.15 K | 879.5
333.15 K | 870
343.15 K | 860.2
353.15 K | 850
363.15 K | 840.2
373.15 K | 830.3
383.15 K | 820.4
393.15 K | 810.3
403.15 K | 800
413.15 K | 789.7
423.15 K | 779.2
